Laboratory results published in publication PMC12683216, “Using High‐Throughput Screening to Identify Crosslinking Peptides That Control Cell‐Mediated Matrix Degradation” (Advanced Healthcare Materials, 2025).
Where a SMILES comes first, the peptide text is derived from it. [ ]: non-standard residue; d: D form. βAla = NCCC(=O)O

Assays:
hMSCs = test: Quantification of peptide and hydrogel degradation in cell-laden PEG hydrogels (Cy3/FAM fluorescence); assay type: in vitro ADME, human
From the text: (§1) Next we designed systems to quantify the amount of crosslinking peptide degradation and bulk hydrogel degradation during culture. We synthesized both the KLVAD‐LM peptide and the PanMMP peptide with an N‐terminal Cy3 and a C‐terminal azide to click into the PEG hydrogel network, and also coupled fluorescein (FAM) to the hydrogel using a non‐degradable linker (Figure 5A). Proteolytic cleavage of the crosslinking peptides will liberate the Cy3 from the PEG hydrogel, and bulk erosion of the hydrogel reduces the amount of PEG and FAM. At desired time points, the gels were completely degraded with trypsin, and the fluorescence intensity of Cy3 and FAM was measured to quantify peptide and hydrogel degradation during culture (Figure 5B).
(§2) Figure 5 The rate of degradation of crosslinking peptides in the hydrogels was quantified using fluorescence. A) A fraction of PEG arms were functionalized with PanMMP and KLVAD‐LM peptides that were labeled with […] on their N‐terminus and conjugated to the PEG hydrogel matrix on their C‐terminus to quantify crosslinker degradation. Fluorescein (FAM) was also conjugated to the hydrogel through non‐degradable linkers to quantify bulk hydrogel degradation. […] The amounts of remaining Cy3 and FAM were quantified using fluorescence spectroscopy. […]

hUVECs = test: as above; assay type: in vitro ADME, human
From the text: as §1, §2

[1] = Peptide stability in fresh cell culture media (Blank); assay type: in vitro ADME; settings: no cell contact, 24 h, LC-MS
Experimental: To verify that MMP‐14 can degrade the KLVAD‐LM and PanMMP peptides, recombinant MMP‐14 was added to the different peptides, both in PBS and in the Cell and Media culture conditions (Figure 7 ). Peptides were incubated under three conditions: in fresh cell culture media (“Blank”), in media with cells present (“Cells”), and in cell‐conditioned media (“Media”). This was done for both hMSCs and hUVECs, and was also done with and without the addition of exogenous MMP.
The extent of peptide degradation was quantified for samples both with and without the addition of exogenous MMP‐14. […] Error bars indicate ± standard deviation, N = 3 with technical triplicates.
hUVECs (75000 per well) or hMSCs (36000 per well) were seeded into a 48 well plate, and 500 µL media was added to the wells. […] The peptide libraries were dissolved at a stock solution of 10 mM total peptide content. […]
For all degradation studies using soluble peptides, a non‐proteolytically degradable NH2‐βFβAβAβAβAβAβA‐amide (βFβA6) peptide, where βF is β‐phenylalanine and βA is β‐alanine, was added at a 50 µM concentration and used as an internal standard. Peptide degradation ratios were measured by LC‐MS and analyzed by Xcalibur. The relative concentrations of the peptide were calculated by the ratio of the peak area of the peptide and the peak area of βFβA6.

With `CSCC[C@H](NC(=O)[C@H](CC(C)C)NC(=O)[C@H](CC(=O)O)NC(=O)[C@H](C)NC(=O)[C@@H](NC(=O)[C@H](CC(C)C)NC(=O)[C@H](CCCCN)NC(=O)CCNC(C)=O)C(C)C)C(=O)N[C@@H](C)C(=O)N[C@@H](CO)C(=O)N[C@@H](C)C(=O)N[C@@H](CCC(=O)O)C(=O)NCCC(N)=O` [KLVAD-LM] (Ac-[βAla]KLVADLMASAE[βAla]-NH2) as the molecule, how does the “degradation within hydrogels relative to that seen with the PanMMP peptide, hMSCs” value (hMSCs) read?
The value was 40–60%.

What about the “degradation within hydrogels relative to that seen with the PanMMP peptide, hUVECs” value (hUVECs) of the same molecule?
The value was 40–60%.

For `CC[C@H](C)[C@H](NC(=O)CNC(=O)[C@H](CCC(N)=O)NC(=O)[C@@H]1CCCN1C(=O)CNC(=O)CCNC(C)=O)C(=O)N[C@@H](Cc1c[nH]c2ccccc12)C(=O)NCC(=O)N[C@@H](CCC(N)=O)C(=O)NCCC(N)=O` [PanMMP, reference compound] (Ac-[βAla]GPQGIWGQ[βAla]-NH2), which “degradation in the Blank condition without added MMP‐14 (hydrolytic stability)” value [1] is on record?
The value was “negligible degradation”.
